Laboratory results: patent US7452997B2 (priority 2004, dated 2008)
pIC50: −log10 of the molar value. Like-named read-outs stand apart in the source and are kept apart here.

Legend:
human CB2 receptor = human CB2 receptor (Homo sapiens, UniProt P34972); assay: Binding assay, cannabinoid CB2 receptor ([3H]-CP-55,940 displacement); details: SK-N-MC cell membranes, radioligand CP-55,940 0.2 nM
Protocol: (§1) Binding Assay for CB1 or CB2 Agonists or Inverse Agonists
(§2) The human CB1 and CB2 receptors were stably expressed in SK-N-MC cells transfected with pcDNA3 CB-1 (human) or pcDNA3 CB-2 (human). The cells were grown in T-180 cell culture flasks under standard cell culture conditions at 37° C. in a 5% CO2 atmosphere. The cells were harvested by trysinization and homogenized in a homogenization buffer (10 mM Tris, 0.2 mM MgCl2, 5 mM KCl, with protease inhibitors aprotinin, leupeptin, pepstatin A and bacitracin) and centrifuged (2000 g). The supernatant was then centrifuged in 2M sucrose (31,300 g) to produce a semi-purified membrane pellet. The pellet was resuspended in homogenization and store at −80° C.
(§3) On the day of the assay, the pellet was thawed on ice and diluted in assay buffer (50 mM Tris-HCl, 5 mM MgCl2, 2.5 mM EDTA, 0.5 mg/mL fatty acid free bovine serum albumin, pH 7.5). The diluted membrane was added with buffer, test compound or standard and the radioligand [H]^3+-CP-55,940_(0.2 nM) to the wells of a 96-well polypropylene plate. Non-specific binding was measured in wells containing 10 uM WIN 55,212. The plate was covered and incubated for 90 minutes at 30° C. The contents were then aspirated onto a Packard UNIFILTER GF/C filter bottom plate prewet with 0.5% polyethyleneimine. The wells of the polypropylene plate were rinsed and aspirated seven times with a 0.9% saline-0.5% TWEEN 20 solution. The UNIFILTER plate was dried, a scintillation cocktail was added to each well and the counts representing binding were quantitated in a TOPCOUNT scintillation counter.
(§4) The IC50 binding values for compounds tested were calculated by linear regression and were obtained from studies in which varying compound concentrations were used.

human CB1 receptor = molecular target: T1, human CB1 receptor (Homo sapiens, UniProt P21554); assay: biochemical; assay type: binding
T1 construct: expressed in transfected cells; host or cells: SK-N-MC cells, stably transfected with pcDNA3 CB-1 (human); semi-purified membrane pellet
T1 sequence (P21554 whole entry): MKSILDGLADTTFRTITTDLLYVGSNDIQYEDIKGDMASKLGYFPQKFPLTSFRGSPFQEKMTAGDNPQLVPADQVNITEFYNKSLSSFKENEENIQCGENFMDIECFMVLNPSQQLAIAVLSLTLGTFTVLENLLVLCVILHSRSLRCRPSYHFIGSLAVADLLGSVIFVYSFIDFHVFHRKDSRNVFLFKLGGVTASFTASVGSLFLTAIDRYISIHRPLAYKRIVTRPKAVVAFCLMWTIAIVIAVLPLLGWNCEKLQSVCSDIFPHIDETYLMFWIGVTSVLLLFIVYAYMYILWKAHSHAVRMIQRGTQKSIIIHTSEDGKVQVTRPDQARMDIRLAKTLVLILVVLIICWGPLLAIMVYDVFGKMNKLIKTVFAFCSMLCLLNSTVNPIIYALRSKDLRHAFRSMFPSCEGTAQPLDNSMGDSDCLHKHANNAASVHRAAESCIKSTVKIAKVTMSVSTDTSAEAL
Protocol: as §1, §2
as §3, with “The diluted membrane was added with buffer, test compound or standard and the radioligand [H]^3+-CP-55,940_(0.2 nM) to the wells of a 96-well polypropylene plate. Non-specific binding was measured in wells containing 10 uM WIN 55,212.” left out, “UNIFILTER” left out
as §4

[1] = Cannabinoid CB2 Receptor Binding IC50, human CB2 receptor
[2] = human CB2 receptor, read-out: Cannabinoid CB2 Receptor Binding IC50

human CB2 receptor, sequence (P34972 whole entry): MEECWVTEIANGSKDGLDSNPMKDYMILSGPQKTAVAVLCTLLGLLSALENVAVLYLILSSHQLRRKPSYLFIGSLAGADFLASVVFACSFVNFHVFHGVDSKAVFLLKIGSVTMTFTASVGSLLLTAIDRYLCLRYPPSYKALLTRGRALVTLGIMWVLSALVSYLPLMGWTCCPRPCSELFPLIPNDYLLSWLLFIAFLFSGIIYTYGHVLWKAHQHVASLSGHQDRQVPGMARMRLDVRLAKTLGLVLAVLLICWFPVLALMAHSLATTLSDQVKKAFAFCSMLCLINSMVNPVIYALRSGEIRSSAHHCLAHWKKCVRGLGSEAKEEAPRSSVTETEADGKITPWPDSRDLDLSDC

Row | SMILES | pIC50 (human CB2 receptor; [1]) | pIC50 (human CB1 receptor) | pIC50 (human CB2 receptor; [2])
1 | O=C(N[C@H]1CCCC[C@H]1CO)c1nn(C2CCCCC2)c2c1CCCC2Cl (stereo partly drawn) [Cpd 60, 7-chloro-1-cyclohexyl-4,5,6,7-tetrahydro-1H-indazole-3-carboxylic acid [(1S,2R)-2-hydroxymethyl-cyclohexyl]-amide] | 6.29 | 5.28 | 
2 | COC1CCCc2c(C(=O)NC(C)C34CC5CC(CC(C5)C3)C4)nn(C3CCCCC3)c21 (stereo not drawn) [compound 161] | 6.11 | 5.28 | 
3 | CC(NC(=O)c1nn(C2CCCCC2)c2c1CC(C(N)=O)CC2)C12CC3CC(CC(C3)C1)C2 (stereo not drawn) [compound 224] | 5.92 | 5.82 | 
4 | CCOC(=O)[C@@H]1CCCC[C@@H]1NC(=O)c1c2c(nn1Cc1ccccc1)CCCC2 [compound 270] | 5.74 | 5.51 | 
5 | CCOC(=O)N1CCC(NC(=O)c2nn(Cc3ccccc3)c3c2CCCC3)CC1 [compound 171] | 6.52 | 6.19 | 
6 | O=C(Nc1nn(C2CCCCC2)c2c1CCCC2)C12CC3CC(CC(C3)C1)C2 [compound 179] | 6.15 | 5.14 | 
7 | O=C(NCC1CCCCC1)c1nn(Cc2ccccc2)c2c1CCCC2 [compound 189] | 8.00 | 8.00 | 
8 | CC12CCC(C1)C(C)(C)C2NC(=O)c1nn(C2CCCCCC2)c2c1CCCC2 (stereo not drawn) [compound 74] | 8.85 | 7.82 | 
9 | CC12CCC(C1)C(C)(C)C2NC(=O)c1nn(-c2ccc(Cl)cc2Cl)c2c1CCCC2 (stereo not drawn) [compound 129] | 8.77 | 8.24 | 
10 | CC(C)(C)CC(C)(C)NC(=O)C1CCc2c(c(C(=O)NC3C4CC5CC(C4)CC3C5)nn2C2CCCCC2)C1 (stereo not drawn) [Cpd 228, 1-cyclohexyl-4,5,6,7-tetrahydro-1H-indazole-3,5-dicarboxylic acid 3-adamantan-2-ylamide 5-[(1,1,3,3-tetramethyl-butyl)-amide]] | 6.60 |  | 
11 | CCOC(=O)C1CC=CCC1NC(=O)c1nn(Cc2ccccc2)c2c1CCCC2 (stereo not drawn) [compound 119] | 8.00 | 8.22 | 
12 | O=C(NC12CC3CC(CC(C3)C1)C2)c1nn(-c2ccc(F)cc2)c2c1CCCC2CCc1ccccc1 (stereo not drawn) [compound 150] | 7.40 | 6.89 | 
13 | CCOC(=O)C1CC=CCC1NC(=O)c1nn(C2CCCCC2)c2c1CCCC2 (stereo not drawn) [compound 301] | 7.48 | 7.62 | 
14 | O=C(NN1CCCCCC1)c1nn(Cc2ccccc2)c2c1CCCC2 [compound 41] | 7.46 | 7.31 | 
15 | CCOC(=O)C1CCc2c(c(C(=O)NC3C4CCC(C4)C3C(=O)OCC)nn2C2CCCCC2)C1 (stereo not drawn) [compound 137] | 5.81 | 5.40 | 
16 | COc1ccc(C(=O)CNC(=O)c2nn(C3CCCCC3)c3c2CCCC3)cc1 [Cpd 176] | 5.40 |  | 
17 | CCOC(=O)[C@H]1C2C=CC(C2)[C@H]1NC(=O)c1c2c(nn1Cc1ccccc1)CCCC2 (stereo partly drawn) [compound 275] | 5.89 | 6.49 | 
18 | Cc1ccc(-n2nc(C(=O)NC3C4(C)CCC(C4)C3(C)C)c3c2CCCC3)cc1 (stereo not drawn) [compound 11] | 7.39 | 6.54 | 
19 | CCOC(=O)[C@H]1C2CCC(C2)[C@H]1NC(=O)c1nn(C2CCCCC2)c2c1CCCC2Cl (stereo partly drawn) [compound 63] | 5.48 | 4.86 | 
20 | CCC(NC(=O)c1nn(C2CCCCC2)c2c1CCCC2)C1CCCCC1 (stereo not drawn) [compound 234] | 8.00 | 6.64 | 
21 | C[C@H](NC(=O)c1nn(Cc2ccccc2)c2c1CCCC2)c1ccccc1 [compound 200] | 9.00 | 8.10 | 
22 | CC(C)(C)OC(=O)C1CCc2c(c(C(=O)NC3C4CC5CC(C4)CC3C5)nn2C2CCCCC2)C1 (stereo not drawn) [compound 233] | 6.06 | 5.80 | 
23 | O=C(NC1C2CCC(C2)C1C(=O)O)c1nn(C2CCCCC2)c2c1CC(C(=O)O)CC2 (stereo not drawn) [compound 138] |  |  | 4.93
24 | O=C(NCC12CC3CC(CC(C3)C1)C2)c1nn(-c2ccc(Cl)cc2Cl)c2c1CCCC2 [compound 141] | 6.85 | 6.52 | 
25 | CCOC(=O)[C@H]1C2CCC(C2)[C@H]1NC(=O)CCc1nn(C2CCCCC2)c2c1CCCC2 (stereo partly drawn) [compound 54] | 5.22 | 4.94 | 
26 | C[C@H](NC(=O)c1nn(C2CCCCC2)c2c1CCCC2)C12CC3CC(CC(C3)C1)C2 [compound 213] | 6.70 | 6.02 | 
27 | CCOC(=O)C1CCc2c(C(=O)NC3C4CC5CC(C4)CC3C5)nn(Cc3ccccc3)c2C1 (stereo not drawn) [compound 230] | 9.00 | 8.00 | 

Row | SMILES | pIC50 (human CB2 receptor; [1]) | pIC50 (human CB1 receptor) | pIC50 (human CB2 receptor; [2])
28 | CCOC(=O)[C@H]1CCCC[C@@H]1NC(=O)c1nn(C2CCCCC2)c2c1CCCC2 [compound 59] | 7.15 | 6.47 | 
29 | O=C(Nc1nn(C2CCCCC2)c2c1CCCC2)c1ccc2ccccc2c1 [Cpd 178, naphthalene-2-carboxylic acid (1-cyclohexyl-4,5,6,7-tetrahydro-1H-indazol-3-yl)-amide] | 5.54 |  | 
30 | O=C(CNC(=O)c1nn(C2CCCCC2)c2c1CCCC2)c1ccccc1 [compound 188] | 5.29 |  | 
31 | CC12CCC(C1)C(C)(C)C2NC(=O)c1nn(C2CCCCC2)c2c1CC(C(N)=O)CC2 (stereo not drawn) [compound 170] | 6.52 |  | 
32 | CCOC(=O)C1CCc2c(c(C(=O)NC3C4CC5CC(C4)CC3C5)nn2-c2ccccc2)C1 (stereo not drawn) [compound 115] | 6.74 |  | 
33 | C[C@@H](NC(=O)C=Cc1nn(Cc2ccccc2)c2c1CCCC2)c1ccccc1 [Cpd 306, 3-(1-benzyl-4,5,6,7-tetrahydro-1H-indazol-3-yl)-N-[(1R)-1-phenyl-ethyl]-acrylamide] | 5.74 |  | 
34 | CC12CCC(C1)C(C)(C)C2NC(=O)c1nn(-c2ccccn2)c2c1CCCC2 (stereo not drawn) [compound 160] | 5.46 |  | 
35 | COC(=O)C(Cc1ccc(OCc2ccccc2)cc1)NC(=O)c1c2c(nn1-c1ccc(OC)cc1)CCCC2 (stereo not drawn) [compound 4] |  |  | 5.43
36 | CC(C)(C)C1CCc2c(c(C(=O)NC3C4(C)CCC(C4)C3(C)C)nn2-c2ccccc2)C1 (stereo not drawn) [compound 111] | 6.77 |  | 
37 | CC(C)(C)C1CCc2c(c(C(=O)NC34CC5CC(CC(C5)C3)C4)nn2-c2ccccc2)C1 (stereo not drawn) [compound 113] | 6.11 |  | 
38 | O=C(NC1CN2CCC1CC2)c1nn(C2CCCCC2)c2c1CCCC2 (stereo not drawn) [compound 225] |  |  | 6.19
39 | CCOC(=O)C1CCc2c(c(C(=O)NCC34CC5CC(CC(C5)C3)C4)nn2-c2ccccc2)C1 (stereo not drawn) [compound 117] | 6.43 |  | 
40 | CC(C)(C)OC(=O)NC1CCc2c(c(C(=O)NC3C4(C)CCC(C4)C3(C)C)nn2C2CCCCC2)C1 (stereo not drawn) [Cpd 86, [1-cyclohexyl-3-(1,3,3-trimethyl-bicyclo[2.2.1]hept-2-ylcarbamoyl)-4,5,6,7-tetrahydro-1H-indazol-5-yl]-carbamic acid tert-butyl ester] | 6.56 |  | 
41 | CCOC(=O)c1c(NC(=O)c2nn(C3CCCCC3)c3c2CCCC3)sc2c1CCC2 [compound 56] | 4.70 |  | 
42 | O=C(Nc1nn(C2CCCCC2)c2c1CCCC2)c1ccccc1 [compound 186] |  |  | 5.64
43 | COc1ccc(-n2nc3c(c2C(=O)NCCc2ccc(N)cc2)CCCC3)cc1 [compound 8] |  |  | 4.67
44 | O=C(NC1C2CC3CC(C2)CC1C3)c1nn(Cc2ccccc2)c2c1CC(C(=O)O)CC2 (stereo not drawn) [compound 239] | 6.52 |  | 
45 | O=C(NCC(O)c1ccc(Br)cc1)c1nn(C2CCCCC2)c2c1CCCC2 (stereo not drawn) [compound 240] | 5.77 |  | 
46 | CCOC(=O)[C@H]1C2CCC(C2)[C@H]1NC(=O)c1nn(-c2ccc(F)cc2)c2c1CCCC2CC (stereo partly drawn) [compound 191] | 6.72 |  | 
47 | O=C(Nc1nn(C2CCCCC2)c2c1CCCC2)NC12CC3CC(CC(C3)C1)C2 [Cpd 182, 1-adamantan-1-yl-3-(1-cyclohexyl-4,5,6,7-tetrahydro-1H-indazol-3-yl)-urea] | 7.55 |  | 
48 | CCOC(=O)C1CCc2c(c(C(=O)NC34CC5CC(CC(C5)C3)C4)nn2-c2ccccc2)C1 (stereo not drawn) [compound 118] | 6.40 |  | 
49 | CCOC(=O)c1c(NC(=O)c2nn(C3CCCCC3)c3c2CCCC3)sc2c1CCCCC2 [compound 55] | 5.10 |  | 
50 | CCN(C(=O)c1c2c(nn1-c1ccc(OC)cc1)CCCC2)c1ccccc1OC [compound 121] |  |  | 5.20
51 | CCOC(=O)C1CCc2c(c(C(=O)NN3CCCCC3)nn2C2CCCCC2)C1 (stereo not drawn) [compound 229] | 5.89 |  | 
52 | C[C@@H](NC(=O)c1nn(C2CCCCC2)c2c1CC(NC(=O)OC(C)(C)C)CC2)C1CCCCC1 (stereo partly drawn) [compound 286] | 5.57 |  | 
53 | CN1C2CCC1CC(NC(=O)c1nn(C3CCCCC3)c3c1CCCC3)C2 (stereo not drawn) [compound 46] | 5.04 |  | 
